pEC50, pIC50: −log10 of the molar value.
How the values were obtained:
[1] = target: T1, GLS1 (purified recombinant human GAC) (Homo sapiens, UniProt O94925); assay: GLS1 enzymatic activity assay (dual-coupled, Amplex UltraRed/resorufin); type: biochemical
T1 sequence (O94925 55-598 isoform O94925-3 limits assumed): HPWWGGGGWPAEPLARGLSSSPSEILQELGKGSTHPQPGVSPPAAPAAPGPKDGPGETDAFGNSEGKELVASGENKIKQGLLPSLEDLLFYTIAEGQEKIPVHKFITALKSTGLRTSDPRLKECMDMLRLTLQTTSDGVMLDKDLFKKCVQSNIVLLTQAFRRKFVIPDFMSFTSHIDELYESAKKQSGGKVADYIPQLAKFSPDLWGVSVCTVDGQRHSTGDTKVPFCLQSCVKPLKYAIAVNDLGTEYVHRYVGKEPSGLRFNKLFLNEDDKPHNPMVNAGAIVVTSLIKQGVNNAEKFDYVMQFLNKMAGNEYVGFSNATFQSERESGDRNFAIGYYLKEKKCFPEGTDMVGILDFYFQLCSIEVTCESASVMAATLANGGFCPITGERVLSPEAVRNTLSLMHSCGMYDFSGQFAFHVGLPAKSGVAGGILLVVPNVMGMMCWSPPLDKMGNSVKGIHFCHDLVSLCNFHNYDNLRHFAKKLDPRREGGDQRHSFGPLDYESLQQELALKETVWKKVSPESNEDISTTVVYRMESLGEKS
Summary of the method: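 Recombinant human GAC (2 nM) preincubated with 50 mM potassium phosphate, then inhibitor (10 min each, RT); 1 mM glutamine, pH 7.4 Hepes buffer, 1% DMSO. Glutamate coupled via glutamate oxidase/HRP to resorufin (Ex 530/Em 590), kinetic or 20-min endpoint; IC50 by four-parameter logistic fit.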

A549 cells = assay: A549 proliferation (viability) assay, Cell Titer Fluor, 72 hours; type: cell-based; details: Homo sapiens
Summary of the method: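 A549 cells seeded at 1000 cells/well, left 24 h, then exposed to compound for 72 h at 37 °C, 5% CO2, final DMSO 0.5% (v/v). Viability read by Cell Titer Fluor fluorescence; EC50 from four-parameter logistic fit.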

Row | Structure (SMILES) | pIC50 [1] | pEC50 (A549 cells)
1 | CNC(=O)c1cn(CCCCn2ccc(NC(=O)Cc3cccc(OC(F)(F)F)c3)cc2=O)nn1 [Example 40, N-methyl-1-[4-(2-oxo-4-{2-[3-(trifluoromethoxy)phenyl]acetamido}-1,2-dihydropyridin-1-yl)butyl]-1H-1,2,3-triazole-4-carboxamide] | 6.30 to 7.00 | 5.30 to 6.30
2 | O=C(Cn1ccccc1=O)Nc1ccn(CCCCn2cc(C(=O)NCc3cccc(C(F)(F)F)c3)nn2)c(=O)c1 [Example 157, 1-(4-{2-oxo-4-[2-(2-oxo-1,2-dihydropyridin-1-yl)acetamido]-1,2-dihydropyridin-1-yl}butyl)-N-{[3-(trifluoromethyl)phenyl]methyl}-1H-1,2,3-triazole-4-carboxamide] | 5.30 to 6.30 | < 5.30
3 | O=C(Cc1cccc(OC(F)(F)F)c1)Nc1ccn(CCCCn2ccc(NC(=O)Cc3cccc(OC(F)(F)F)c3)nc2=O)c(=O)n1 [Example 91, N-{2-oxo-1-[4-(2-oxo-4-{2-[3-(trifluoromethoxy)phenyl]acetamido}-1,2-dihydropyrimidin-1-yl)butyl]-1,2-dihydropyrimidin-4-yl}-2-[3-(trifluoromethoxy)phenyl]acetamide] | > 7.00 | 6.30 to 7.00
4 | O=C(CC1CCCOC1)Nc1ccn(CCCCn2cc(C(=O)NCc3cccc(OC(F)(F)F)c3)nn2)c(=O)c1 (stereo not shown) [Example 56, 1-(4-{4-[2-(oxan-3-yl)acetamido]-2-oxo-1,2-dihydropyridin-1-yl}butyl)-N-{[3-(trifluoromethoxy)phenyl]methyl}-1H-1,2,3-triazole-4-carboxamide] | > 7.00 | 5.30 to 6.30
5 | CNC(=O)c1cn(CCCCn2ccc(NC(=O)Cc3ccccc3)cc2=O)nn1 [Example 32, N-methyl-1-{4-[2-oxo-4-(2-phenylacetamido)-1,2-dihydropyridin-1-yl]butyl}-1H-1,2,3-triazole-4-carboxamide] | 5.30 to 6.30 | < 5.30
6 | Cc1ccc(CNC(=O)c2cn(CCCCn3ccc(NC(=O)OC(C)(C)C)cc3=O)nn2)cn1 [Example 143, tert-butyl N-{1-[4-(4-{[(6-methylpyridin-3-yl)methyl]carbamoyl}-1H-1,2,3-triazol-1-yl)butyl]-2-oxo-1,2-dihydropyridin-4-yl}carbamate] | 6.30 to 7.00 | 5.30 to 6.30
7 | CC(=O)Nc1ccn(CCCCc2nnc(NC(=O)Cc3ccccc3)s2)c(=O)n1 [Example 18] | 6.30 to 7.00 | < 5.30
8 | CC(C)OC(=O)Nc1ccn(CCCCc2ccc(NC(=O)Cc3cccc(OC(F)(F)F)c3)nn2)c(=O)n1 [Example 102, propan-2-yl N-{2-oxo-1-[4-(6-{2-[3-(trifluoromethoxy)phenyl]acetamido}pyridazin-3-yl)butyl]-1,2-dihydropyrimidin-4-yl}carbamate] | > 7.00 | 6.30 to 7.00
9 | O=C(Cc1ccccn1)Nc1ccn(CCC(F)Cn2cc(C(=O)NCc3cccc(C(F)(F)F)c3)nn2)c(=O)c1 (stereo not shown) [Example 183, 1-(2-fluoro-4-{2-oxo-4-[2-(pyridin-2-yl)acetamido]-1,2-dihydropyridin-1-yl}butyl)-N-{[3-(trifluoromethyl)phenyl]methyl}-1H-1,2,3-triazole-4-carboxamide] | > 7.00 | 5.30 to 6.30
10 | O=C(Cc1cccc(OC(F)(F)F)c1)Nc1ccc(CCCCn2ccc(NC(=O)Cc3ccccc3)nc2=O)nn1 [Example 75, N-{2-oxo-1-[4-(6-{2-[3-(trifluoro-methoxy)phenyl]acetamido}pyridazin-3-yl)butyl]-1,2-dihydropyrimidin-4-yl}-2-phenylacetamide] | > 7.00 | > 7.00

More lines, now with the values ahead:

Row | pIC50 [1] | pEC50 (A549 cells) | Structure (SMILES)
11 | > 7.00 | > 7.00 | C[C@H](C(=O)Nc1ccn(CCC(F)Cn2cc(C(=O)NCc3cc(C(F)(F)F)ccn3)nn2)c(=O)c1F)c1ccccc1 (stereo partly drawn) [Example 343, 1-(2-fluoro-4-{3-fluoro-2-oxo-4-[(2S) 2-phenylpropanamido]-1,2-dihydropyridin-1-yl}butyl)-N-{[4-(trifluoromethyl)pyridin-2-yl]methyl}-1H-1,2,3-triazole-4-carboxamide]
12 | > 7.00 | > 7.00 | O=C(NCc1cccc(OC(F)(F)F)c1)c1cn(CC(F)CCn2ccc(NC(=O)[C@H](O)c3ccccc3)c(F)c2=O)nn1 (stereo partly drawn) [Example 287, 1-(2-fluoro-4-{3-fluoro-4-[(2R)-2-hydroxy-2-phenylacetamido]-2-oxo-1,2-dihydropyridin-1-yl}butyl)-N-{[3-(trifluoromethoxy)phenyl]methyl}-1H-1,2,3-triazole-4-carboxamide]
13 | > 7.00 | > 7.00 | O=C(Cc1ccccc1F)Nc1ccn(CCC(F)Cn2cc(C(=O)NCc3cncc(C(F)(F)F)c3)nn2)c(=O)c1F (stereo not shown) [Example 361, 1-(2-fluoro-4-{3-fluoro-4-[2-(2-fluorophenyl)acetamido]-2-oxo-1,2-dihydropyridin-1-yl}butyl)-N-{[5-(trifluoromethyl)pyridin-3-yl]methyl}-1H-1,2,3-triazole-4-carboxamide]
14 | 6.30 to 7.00 | 6.30 to 7.00 | Cc1ccc(CNC(=O)c2nnc(CCCCn3ccc(NC(=O)CN4CCCCC4)c(F)c3=O)s2)cn1 [Example 462, 5-(4-{3-fluoro-2-oxo-4-[2-(piperidin-1-yl)acetamido]-1,2-dihydropyridin-1-yl}butyl)-N-[(6-methylpyridin-3-yl)methyl]-1,3,4-thiadiazole-2-carboxamide]
15 | 5.30 to 6.30 | 5.30 to 6.30 | O=C(NCc1cccc(OC(F)(F)F)c1)c1cn(CC(F)CCn2ccc(Cn3ccccc3=O)cc2=O)nn1 (stereo not shown) [Example 479, 1-(2-fluoro-4-{2-oxo-4-[(2-oxo-1,2-dihydropyridin-1-yl)methyl]-1,2-dihydropyridin-1-yl}butyl)-N-{[3-(trifluoromethoxy)phenyl]methyl}-1H-1,2,3-triazole-4-carboxamide]
16 | > 7.00 | > 7.00 | O=C(Nc1ccn(CCC(F)Cn2cc(C(=O)NCc3cc(C(F)(F)F)ccn3)nn2)c(=O)c1F)C(=O)c1ccccc1 (stereo not shown) [Example 333, 1-{2-fluoro-4-[3-fluoro-2-oxo-4-(2-oxo-2-phenylacetamido)-1,2-dihydropyridin-1-yl]butyl}-N-{[4-(trifluoromethyl)pyridin-2-yl]methyl}-1H-1,2,3-triazole-4-carboxamide]
17 | > 7.00 | 6.30 to 7.00 | O=C(Cc1cccc(OC(F)(F)F)c1)Nc1ccn(CCCCc2nnc(C(=O)NCc3ncccc3F)s2)c(=O)c1 [Example 454, N-[(3-fluoropyridin-2-yl)methyl]-5-[4-(2-oxo-4-{2-[3-(trifluoromethoxy)phenyl]acetamido}-1,2-dihydropyridin-1-yl)butyl]-1,3,4-thiadiazole-2-carboxamide]
18 | > 7.00 | 5.30 to 6.30 | O=C(NCc1cccc(OC(F)(F)F)c1)c1cn(CC(F)CCn2ccc(COc3ccccc3)cc2=O)nn1 (stereo not shown) [Example 414, 1-(2-fluoro-4-(2-oxo-4-(phenoxymethyl)pyridin-1(2H)-yl)butyl)-N-(3-(trifluoromethoxy)benzyl)-1H-1,2,3-triazole-4-carboxamide]
19 | > 7.00 | > 7.00 | O=C(Nc1ccn(CCC(F)Cn2cc(C(=O)NCc3cccc(OC(F)(F)F)c3)nn2)c(=O)c1F)C(=O)N1CCCC(C(F)(F)F)C1 (stereo not shown) [Example 419, 1-[2-fluoro-4-(3-fluoro-2-oxo-4-{2-oxo-2-[3-(trifluoromethyl)piperidin-1-yl]acetamido}-1,2-dihydropyridin-1-yl)butyl]-N-{[3-(trifluoromethoxy)phenyl]methyl}-1H-1,2,3-triazole-4-carboxamide]
20 | > 7.00 | > 7.00 | O=C(CC1CCC1)Nc1ccn(CCC(F)Cn2cc(C(=O)NCc3cc(C(F)(F)F)ccn3)nn2)c(=O)c1F (stereo not shown) [Example 332, 1-{4-[4-(2-cyclobutylacetamido)-3-fluoro-2-oxo-1,2-dihydropyridin-1-yl]-2-fluorobutyl}-N-{[4-(trifluoromethyl)pyridin-2-yl]methyl}-1H-1,2,3-triazole-4-carboxamide]
21 | 5.30 to 6.30 | < 5.30 | CC(C)(CO)CNC(=O)c1cn(CC(F)CCn2ccc(NC(=O)CN3CCN(C(=O)OC(C)(C)C)CC3)cc2=O)nn1 (stereo not shown) [Example 406, tert-butyl 4-({[1-(3-fluoro-4-{4-[(3-hydroxy-2,2-dimethylpropyl)carbamoyl]-1H-1,2,3-triazol-1-yl}butyl)-2-oxo-1,2-dihydropyridin-4-yl]carbamoyl}methyl)piperazine-1-carboxylate]
22 | 6.30 to 7.00 | < 5.30 | CCOC(=O)C(=O)Nc1ccn(CCC(F)Cn2cc(C(=O)NCc3cccc(OC(F)(F)F)c3)nn2)c(=O)c1F (stereo not shown) [Example 347, ethyl [(3-fluoro-1-{3-fluoro-4-[4-({[3-(trifluoromethoxy)phenyl]methyl}carbamoyl)-1H-1,2,3-triazol-1-yl]butyl}-2-oxo-1,2-dihydropyridin-4-yl)carbamoyl]formate]
23 | 5.30 to 6.30 | < 5.30 | Nc1ccn(CCC(F)Cn2cc(C(=O)NCc3cncc(C(F)(F)F)c3)nn2)c(=O)c1F (stereo not shown) [Example 331, 1-[4-(4-amino-3-fluoro-2-oxo-1,2-dihydropyridin-1-yl)-2-fluorobutyl]-N-{[5-(trifluoromethyl)pyridin-3-yl]methyl}-1H-1,2,3-triazole-4-carboxamide]

Source: patent US20160002204A1 (Board of Regents, The University of Texas System, priority 2014, published 2016)
